Article PMC5415745, “Drug-transporter mediated interactions between anthelminthic and antiretroviral drugs across the Caco-2 cell monolayers” (BMC Pharmacology & Toxicology, 2017)
“And” between values parts separate entries of the source, which are not always exact repeats. Equal values may be shown once.

How the values were obtained:
[1] = Bidirectional (AP→BL, BL→AP) drug transport across Caco-2 cell monolayers in transwells: cumulative transport, Papp, efflux ratio; HPLC or radiolabeled assay; details: human
[2] = tested on: Caco-2 cell monolayers; experiment: as above; details: for Effect on the transport of IVM / Effect on the transport of PZQ: labelled drug is the interacting drug
[3] = cited from earlier work
[4] = Caco-2, Papp AP → BL, mean (n=3) after 60 min, drug A alone, or label 'A + B' = transport of A in presence of interacting drug B, concentrations per Table 1
[5] = Caco-2, Papp BL → AP, mean (n=3) after 60 min, drug A alone, or label 'A + B' = transport of A in presence of interacting drug B, concentrations per Table 1
[6] = [3H] LPV alone, 60 min, individual experiments 1-3
[7] = [3H] LPV alone, 60 min, mean, n=3
[8] = [3H] LPV alone, 120 min, individual experiments 1-3
[9] = [3H] LPV alone, 120 min, mean, n=3
[10] = [3H] LPV alone, 180 min, individual experiments 1-3
[11] = [3H] LPV alone, 180 min, mean, n=3
[12] = [3H] LPV alone, 240 min, individual experiments 1-3
[13] = [3H] LPV alone, 240 min, mean, n=3
[14] = [3H] LPV alone, after 60 min, samples 1-3
[15] = [3H] NVP alone, 60 min, individual experiments 1-3
[16] = [3H] NVP alone, 60 min, mean, n=3
[17] = [3H] NVP alone, 120 min, individual experiments 1-3
[18] = [3H] NVP alone, 120 min, mean, n=3
[19] = [3H] NVP alone, 180 min, individual experiments 1-3
[20] = [3H] NVP alone, 180 min, mean, n=3
[21] = [3H] NVP alone, 240 min, individual experiments 1-3
[22] = [3H] NVP alone, 240 min, mean, n=3
[23] = [3H] NVP alone, after 60 min, samples 1-3
[24] = SQV alone (PZQ experiment), 60 min, mean
[25] = SQV alone (PZQ experiment), 60 min, samples 1-3
[26] = SQV alone (PZQ experiment), 120 min, mean
[27] = SQV alone (PZQ experiment), 120 min, samples 1-3
[28] = SQV alone (PZQ experiment), 180 min, mean
[29] = SQV alone (PZQ experiment), 180 min, samples 1-3
[30] = SQV alone (PZQ experiment), 240 min, mean
[31] = SQV alone (PZQ experiment), 240 min, samples 1-3
[32] = SQV alone (PZQ experiment), after 60min, mean
[33] = SQV alone, 60 min, individual experiments 1-3
[34] = SQV alone, 180 min, individual experiments 1-3
[35] = SQV alone, 240 min, individual experiments 1-3
[36] = SQV alone, after 60 min, samples 1-3

## Cc1cccc(C)c1OCC(=O)N[C@@H](Cc1ccccc1)[C@@H](O)C[C@H](Cc1ccccc1)NC(=O)[C@H](C(C)C)N1CCCNC1=O [LPV, lopinavir]
[1]; [4]
  Papp A→B at 60 min: 4.8 ×10⁻⁶ cm/s
[1]; [5]
  Papp B→A at 60 min: 32.1 ×10⁻⁶ cm/s
[1]; Caco-2, PappAB Papp, [3H] LPV alone, after 60 min, samples 1-3
  Papp A→B at 60 min: 5.95 ×10⁻⁶ cm/s
[1]; Caco-2, PappBA Papp, [3H] LPV alone, after 60 min, samples 1-3
  Papp B→A at 60 min: 36.3 ×10⁻⁶ cm/s
[2]; [6]
  Apical to basal transport: 0.92 pmol and 0.73 pmol and 0.68 pmol
  Basal to apical transport: 4.42 pmol and 4.44 pmol and 5.33 pmol
[2]; [7]
  Apical to basal transport Mean: 0.78 pmol
  Basal to apical transport Mean: 4.73 pmol
[2]; [8]
  Apical to basal transport: 1.24 pmol and 1.79 pmol and 1.27 pmol
  Basal to apical transport: 7.38 pmol and 6.91 pmol and 8.43 pmol
[2]; [9]
  Apical to basal transport Mean: 1.43 pmol
  Basal to apical transport Mean: 7.57 pmol
[2]; [10]
  Apical to basal transport: 1.93 pmol and 2.34 pmol and 1.52 pmol
  Basal to apical transport: 9.01 pmol and 8.46 pmol and 10.62 pmol
[2]; [11]
  Apical to basal transport Mean: 1.93 pmol
  Basal to apical transport Mean: 9.36 pmol
[2]; [12]
  Apical to basal transport: 2.15 pmol and 2.71 pmol and 1.78 pmol
  Basal to apical transport: 11.97 pmol and 11.41 pmol and 12.04 pmol
[2]; [13]
  Apical to basal transport Mean: 2.21 pmol
  Basal to apical transport Mean: 11.81 pmol
[2]; [3H] LPV alone, after 60 min, mean, n=3
  PappBA Mean: 32.09 10^9 cm/s
[2]; [14]
  Apical to basal transport Conc. Apical: 18.43 pmol and 19.89 pmol
  Basal to apical transport Conc. Basal: 14.48 pmol and 17.27 pmol and 21.60 pmol
[2]
  Effect on the transport of IVM: twofold decrease in the efflux ratio

## Cc1ccnc2c1NC(=O)c1cccnc1N2C1CC1 [NVP, nevirapine]
[1]; Caco-2, Efflux ratio ER, [3H] NVP alone, after 60 min, samples 1-3
  efflux ratio at 60 min: 1.03
[1]; [4]
  Papp A→B at 60 min: 42.7 ×10⁻⁶ cm/s
[1]; [5]
  Papp B→A at 60 min: 39.5 ×10⁻⁶ cm/s
[1]; Caco-2, PappAB Papp, [3H] NVP alone, after 60 min, samples 1-3
  Papp A→B at 60 min: 52.9 ×10⁻⁶ cm/s
[1]; Caco-2, PappBA Papp, [3H] NVP alone, after 60 min, samples 1-3
  Papp B→A at 60 min: 54.7 ×10⁻⁶ cm/s
[2]; [15]
  Apical to basal transport: 78.8 pmol and 80.8 pmol and 79.4 pmol
  Basal to apical transport: 59.7 pmol and 67.9 pmol and 77.2 pmol
[2]; [16]
  Apical to basal transport Mean: 79.68 pmol
  Basal to apical transport Mean: 68.27 pmol
[2]; [17]
  Apical to basal transport: 111.5 pmol and 123.2 pmol and 109.9 pmol
  Basal to apical transport: 81.9 pmol and 91.5 pmol and 105.1 pmol
[2]; [18]
  Apical to basal transport Mean: 114.88 pmol
  Basal to apical transport Mean: 92.84 pmol
[2]; [19]
  Apical to basal transport: 116.3 pmol and 120.3 pmol and 122.0 pmol
  Basal to apical transport: 92.9 pmol and 107.5 pmol and 118.9 pmol
[2]; [20]
  Apical to basal transport Mean: 119.53 pmol
  Basal to apical transport Mean: 106.41 pmol
[2]; [21]
  Apical to basal transport: 123.9 pmol and 122.5 pmol and 120.2 pmol
  Basal to apical transport: 98.8 pmol and 112.2 pmol and 132.2 pmol
[2]; [22]
  Apical to basal transport Mean: 122.19 pmol
  Basal to apical transport Mean: 114.39 pmol
[2]; [23]
  Apical to basal transport Conc. Apical: 177.1 pmol and 196.6 pmol and 189.3 pmol
  Basal to apical transport Conc. Basal: 129.9 pmol and 207.3 pmol and 202.9 pmol
  Efflux ratio ER: 0.80
  PappAB Papp: 40.3 ×10⁻⁶ cm/s and 34.9 ×10⁻⁶ cm/s
  PappBA Papp: 32.1 ×10⁻⁶ cm/s and 31.7 ×10⁻⁶ cm/s
[2]
  Effect on the transport of IVM: increased
  Effect on the transport of PZQ: did not affect

## CC(C)(C)NC(=O)[C@@H]1C[C@@H]2CCCC[C@@H]2CN1C[C@@H](O)[C@H](Cc1ccccc1)NC(=O)[C@H](CC(N)=O)NC(=O)c1ccc2ccccc2n1 [SQV, saquinavir]
[1]; [4]
  Papp A→B at 60 min: 6.9 ×10⁻⁶ cm/s
[1]; [5]
  Papp B→A at 60 min: 21.1 ×10⁻⁶ cm/s
[1]; Caco-2, PappAB Papp, SQV alone, after 60 min, samples 1-3
  Papp A→B at 60 min: 7.01 ×10⁻⁶ cm/s
[1]; Caco-2, PappBA Papp, SQV alone, after 60 min, samples 1-3
  Papp B→A at 60 min: 25.1 ×10⁻⁶ cm/s
[2]; [24]
  Apical to basal transport Mean: 3.18 pmol
  Basal to apical transport Mean: 6.29 pmol
[2]; [25]
  Apical to basal transport: 3.93 pmol and 2.52 pmol and 3.10 pmol
  Basal to apical transport: 5.98 pmol and 5.60 pmol and 7.29 pmol
[2]; [26]
  Apical to basal transport Mean: 4.32 pmol
  Basal to apical transport Mean: 11.52 pmol
[2]; [27]
  Apical to basal transport: 4.59 pmol and 4.09 pmol and 4.29 pmol
  Basal to apical transport: 10.77 pmol and 11.26 pmol and 12.52 pmol
[2]; [28]
  Apical to basal transport Mean: 5.73 pmol
  Basal to apical transport Mean: 16.09 pmol
[2]; [29]
  Apical to basal transport: 5.76 pmol and 5.30 pmol and 6.14 pmol
  Basal to apical transport: 16.14 pmol and 16.78 pmol and 15.35 pmol
[2]; [30]
  Apical to basal transport Mean: 6.40 pmol
  Basal to apical transport Mean: 20.56 pmol
[2]; [31]
  Apical to basal transport: 6.59 pmol and 5.67 pmol and 6.93 pmol
  Basal to apical transport: 18.19 pmol and 23.27 pmol
[2]; [32]
  PappAB Mean: 6.56 ×10⁻⁶ cm/s
  PappBA Mean: 10.8 ×10⁻⁶ cm/s
[2]; [33]
  Apical to basal transport: 2.74 pmol and 2.54 pmol and 3.32 pmol
  Basal to apical transport: 8.18 pmol and 6.66 pmol and 9.42 pmol
[2]; SQV alone, 60 min, mean, n=3
  Apical to basal transport Mean: 2.87 pmol
  Basal to apical transport Mean: 8.09 pmol
[2]; SQV alone, 120 min, mean, n=3
  Apical to basal transport Mean: 5.52 pmol
  Basal to apical transport Mean: 14.27 pmol
[2]; [34]
  Apical to basal transport: 7.42 pmol and 7.24 pmol and 8.40 pmol
  Basal to apical transport: 18.6 pmol and 17.14 pmol and 18.78 pmol
[2]; SQV alone, 180 min, mean, n=3
  Apical to basal transport Mean: 7.69 pmol
  Basal to apical transport Mean: 18.17 pmol
[2]; [35]
  Apical to basal transport: 9.18 pmol and 8.8 pmol
  Basal to apical transport: 21.42 pmol and 26.66 pmol
[2]; SQV alone, 240 min, mean, n=3
  Apical to basal transport Mean: 9.74 pmol
  Basal to apical transport Mean: 23.51 pmol
[2]; [36]
  Apical to basal transport Conc. Apical: 23.25 pmol and 22.93 pmol
  Basal to apical transport Conc. Basal: 19.35 pmol and 21.54 pmol and 28.21 pmol
  PappAB Papp: 6.59 ×10⁻⁶ cm/s and 7.13 ×10⁻⁶ cm/s
  PappBA Papp: 18.4 ×10⁻⁶ cm/s and 19.9 ×10⁻⁶ cm/s
[2]
  Effect on the transport of PZQ: did not affect
[2]; mean (n=3) after 60 min, drug A alone, or label 'A + B' = transport of A in presence of interacting drug B, concentrations per Table 1
  Papp AP → BL: 6.6 ×10⁻⁶ cm/s
[3]
  Log Kow: 2.5
